Results on ten substances are retold here after patent publication US20250381324A1, “CD31 MIMETIC COATING FOR ENDOVASCULAR STENT” (INSERM (Institut National de la Santé et de la Recherche …, priority 2021, published 2025).

For test [1], the system named is Primary Human Aortic Endothelial Cells (HAEC). As to the kind of experiment: Human aortic endothelial cells grown 48 h on bare or peptide-coated nitinol disks; F-actin / CD31 staining and image analysis. The class given is cell-based. The note with it: for CD31 expression (physiologic endothelial phenotype), Integrated Density / F-actin expression (cellular stress), Integrated Density: HAEC 48 h on coated nitinol disks; for CD31 expression (physiologic endothelial phenotype), Integrated Density: compared to other modified disks and bare controls, FIGS. 2, 4, 5; for CD31/Actin score: Example 2, FIG. 25, repeated experiments (SP547, SP548 only one measure); for F-actin expression (cellular stress), Integrated Density: compared to bare metal, FIGS. 2, 3, 5. The method, then:
Nitinol disks are left untouched (bare metal) or coated with a domain 1, domain 2 or domain 1 and 2 CD31 analog peptide. The tested peptide is grafted to the nitinol disk following a polydopamine, DBCO-PEG4-amine and azide CD31 derivative peptide using a sequential dip-coating layering procedure. After this step, all the disks are incubated with Human aortic endothelial cells for 48 h. Disks are then rinsed and the cells are fixed in a formalin solution before staining. The staining is fulfilled using phalloidin coupled to AlexaFluor®488 dye (green fluorescence for Actin), DAPI is used for DNA staining and a domain 1 CD31 antibody coupled to APC is used for external Domain 1 staining. The cell adhesion and Actin/CD31 expression was evaluated by image analysis of the surface after staining.
In particular, as per FIG. 2 the bare or coated nitinol disks were placed at the bottom of culture wells. Primary Human Aortic Endothelial Cells (HAEC) were allowed to grow on the disks for a period of 48 h. The disks were thereafter rinsed with phosphate buffered saline, fixed in formalin, and processed for fluorescence microscopy. Disk-adherent cells were immersed in a solution comprising Hoechst 33342 (1 μg/ml, to stain the nuclei), phalloidin coupled to AlexaFluor®488 dye (0.5 μM, to stain F-actin fibers) and a monoclonal antibody directed against CD31 domain 1, coupled to allophycocyanin (to detect the presence and localization of intact CD31 at the cell surface) for 1 hour at 37° C., washed and mounted face down on glass bottom imaging chambers for imaging with an inverted fluorescence microscope.
Surface type is indicated on the Y axis, data are expressed as average±SD (N=6/surface type). Each dot corresponds to a specific surface modification. The F-actin expression relates the cellular stress of the cell in presence of the exogenous material.
In FIG. 4 the surface type is indicated on the Y axis. Each dot corresponds to a specific surface modification. Data are expressed as “Integrated Density” average±SD (N=6/surface type). CD31 expression relates the capacity of endothelial cells to adopt a physiologic phenotype while growing on a given substrate. An important variability is observed in terms of CD31 expression by HAEC according to the surface modification of the nitinol disks.
The “mirror” bars of FIG. 5 report the average Integrated Density of F-actin (left) and of CD31 (right) staining for each of the indicated (Y axis) type of peptide coated onto the disk surface and bare disks. Data are sorted (from the top to the bottom) according to the increase in the cellular stress (actin expression) of each coating. As shown on the figure, the degree of cellular stress (as detected by a high actin expression) and impaired endothelial phenotype (documented by a low CD31 expression) is evident on HAEC grown onto bare metal disks.
The data shown in FIG. 6 are expressed as the ratio between CD31 and F-actin expression.
The effect of different peptides, belonging to the different groups, were tested in batches following the same protocol as in FIG. 6. Different peptides from each group were tested in batches and the effect of individual peptides was repeatedly assessed in separate experiments. Data from all experiments were obtained by computer-assisted analysis of images of the disk side covered with endothelial cells, captured in the blue, green and red channel of an inverted fluorescence microscope. The functional score of the peptides belonging to the different groups was calculated by multiplying the number of cells (as detected by the number of blue, Dapi+ nuclei) for the integrated density of CD31 expression (red signal provided by the binding of a mouse anti-human CD31 monoclonal antibody, clone 9G11, conjugated allophycocyanin) and their product being divided for the integrated density of the F-actin polymerization (Phalloidin coupled to a green fluorochrome). […]

For a further test, the system named is endothelial cells. The note with it: immobilized peptide, in vitro; cited from earlier work.

Bridge positions count the residues as written; N and C are the ends. Square brackets hold non-standard residues; d marks the D form. Primed or numbered codes have the meaning given here. Ends that are not written are not given here. * marks the point of attachment. Lys(N3) = [N-]=[N+]=NCCCC[C@H](N)C(=O)O; Ttds = NCCCOCCOCCOCCCNC(=O)CCC(=O)*; hCys = N[C@@H](CCS)C(=O)O; PEG4′ = not defined here

As to “Ac-K(N3)-(Ttds)4-PRhCTLDKKEAIQGGIVRVNhCSVPEEK-CONH2 ({Ac-Lys(N3)-Ttds-Ttds-Ttds-Ttds}-PR[hCys]TLDKKEAIQGGIVRVN[hCys]SVPEEK-NH2; disulfide 3-20) [SP1380]”, the “CD31 expression (physiologic endothelial phenotype), Integrated Density” value in test [1] is recorded as “evident positive effect in terms of CD31 expression”.
For the substance “Ac-K(N3)-GGSGGSGG-YKDDVLFYNISSMKST-NH2 (Ac-[Lys(N3)]GGSGGSGGYKDDVLFYNISSMKST-NH2; SMILES CC[C@H](C)[C@H](NC(=O)[C@H](CC(N)=O)NC(=O)[C@H](Cc1ccc(O)cc1)NC(=O)[C@H](Cc1ccccc1)NC(=O)[C@H](CC(C)C)NC(=O)[C@@H](NC(=O)[C@H](CC(=O)O)NC(=O)[C@H](CC(=O)O)NC(=O)[C@H](CCCCN)NC(=O)[C@H](Cc1ccc(O)cc1)NC(=O)CNC(=O)CNC(=O)[C@H](CO)NC(=O)CNC(=O)CNC(=O)[C@H](CO)NC(=O)CNC(=O)CNC(=O)[C@H](CCCCN=[N+]=[N-])NC(C)=O)C(C)C)C(=O)N[C@@H](CO)C(=O)N[C@@H](CO)C(=O)N[C@@H](CCSC)C(=O)N[C@@H](CCCCN)C(=O)N[C@@H](CO)C(=O)N[C@H](C(N)=O)[C@@H](C)O) [SP547]”, the CD31/Actin score result in test [1] was “equivalent to those of sections coated by other peptides according to the invention”.
For the substance “Ac-K(N3)-PEG4-PRVTLDKKEAIQGGIVRVNSSVPEEK-CONH2 (Ac-[Lys(N3)][PEG4′]PRVTLDKKEAIQGGIVRVNSSVPEEK-NH2) [SP1071]”, the CD31/Actin score entry in test [1] is “significantly higher than those obtained by the bare metal disks or by disks coated with PDA alone”.
For the substance “Ac-YKDDVLFYNISSMKST-GGSGGSGG-K(N3)-NH2 (Ac-YKDDVLFYNISSMKSTGGSGGSGG[Lys(N3)]-NH2; SMILES CC[C@H](C)[C@H](NC(=O)[C@H](CC(N)=O)NC(=O)[C@H](Cc1ccc(O)cc1)NC(=O)[C@H](Cc1ccccc1)NC(=O)[C@H](CC(C)C)NC(=O)[C@@H](NC(=O)[C@H](CC(=O)O)NC(=O)[C@H](CC(=O)O)NC(=O)[C@H](CCCCN)NC(=O)[C@H](Cc1ccc(O)cc1)NC(C)=O)C(C)C)C(=O)N[C@@H](CO)C(=O)N[C@@H](CO)C(=O)N[C@@H](CCSC)C(=O)N[C@@H](CCCCN)C(=O)N[C@@H](CO)C(=O)N[C@H](C(=O)NCC(=O)NCC(=O)N[C@@H](CO)C(=O)NCC(=O)NCC(=O)N[C@@H](CO)C(=O)NCC(=O)NCC(=O)N[C@@H](CCCCN=[N+]=[N-])C(N)=O)[C@@H](C)O) [SP548]”, in test [1], the CD31/Actin score result is listed as “equivalent to those of sections coated by other peptides according to the invention”.
Regarding KWPALFVR [P8RI], the blood element reaction entry in the test with endothelial cells is “reduces the blood element reaction”.
RDQNFVILEFP-PEG4-K(N3)-NH2 [SP1070]: in test [1], the CD31/Actin score result is reported as “significantly higher than those obtained by the bare metal disks or by disks coated with PDA alone” and the “F-actin expression (cellular stress), Integrated Density” value is reported as “does not show an influence on the cellular stress compared to the bare metal”.
As to “SHQMLFYKDDVLFYNISSS-GGSGGSGG-K(N3)-CONH2 (SHQMLFYKDDVLFYNISSSGGSGGSGG[Lys(N3)]-NH2; N-terminus assumed; SMILES CC[C@H](C)[C@H](NC(=O)[C@H](CC(N)=O)NC(=O)[C@H](Cc1ccc(O)cc1)NC(=O)[C@H](Cc1ccccc1)NC(=O)[C@H](CC(C)C)NC(=O)[C@@H](NC(=O)[C@H](CC(=O)O)NC(=O)[C@H](CC(=O)O)NC(=O)[C@H](CCCCN)NC(=O)[C@H](Cc1ccc(O)cc1)NC(=O)[C@H](Cc1ccccc1)NC(=O)[C@H](CC(C)C)NC(=O)[C@H](CCSC)NC(=O)[C@H](CCC(N)=O)NC(=O)[C@H](Cc1c[nH]cn1)NC(=O)[C@@H](N)CO)C(C)C)C(=O)N[C@@H](CO)C(=O)N[C@@H](CO)C(=O)N[C@@H](CO)C(=O)NCC(=O)NCC(=O)N[C@@H](CO)C(=O)NCC(=O)NCC(=O)N[C@@H](CO)C(=O)NCC(=O)NCC(=O)N[C@@H](CCCCN=[N+]=[N-])C(N)=O) [SP745]”, the CD31/Actin score result in test [1] is “significantly higher than those obtained by the bare metal disks or by disks coated with PDA alone”.
As for “[Ac-K(N3)-(Ttds)4-PRVTLDKKEAIQGGIVRVNSSVPEEK-Ttds-K^# (CH2CO)-CONH2]-[QHQMLFYhC^#DDVLFYNISSMK-CONH2] (chain 1 {Ac-Lys(N3)-Ttds-Ttds-Ttds-Ttds}-PRVTLDKKEAIQGGIVRVNSSVPEEK-{Ttds-K(CH2CO)-NH2}; chain 2 QHQMLFY[hCys]DDVLFYNISSMK-NH2; also: thioether at chain B 8 to a chain's C-terminus) [SP1383]”, in test [1], the CD31/Actin score result is listed as “significantly higher than those obtained by the bare metal disks or by disks coated with PDA alone”.
On to “[^#CH2CONH2GTYKSTVIVNNKEKTTAEYQ-(Ttds)4-K(N3)-NH2]-[QHQMLFYhC^#DDVLFYNISSMK-CONH2] (chain 1 GTYKSTVIVNNKEKTTAEYQ-{Ttds-Ttds-Ttds-Ttds-Lys(N3)-NH2}; chain 2 QHQMLFY[hCys]DDVLFYNISSMK-NH2; not fully specified (N-terminus); also: thioether at chain B 8 to a chain's N-terminus) [SP1379]”, for which the CD31/Actin score entry in test [1] is recorded as “significantly higher than those obtained by the bare metal disks or by disks coated with PDA alone”.
In the case of “hCHQMLFYKDDVLFYNISShCK-Ttds-Ttds-Ttds-Ttds-K(N3)-CONH2 ([hCys]HQMLFYKDDVLFYNISS[hCys]K-{Ttds-Ttds-Ttds-Ttds-Lys(N3)-NH2}; cysteine pairing not given here) [SP1374]”, in test [1], the CD31/Actin score entry is reported as “significantly higher than those obtained by the bare metal disks or by disks coated with PDA alone” and the “F-actin expression (cellular stress), Integrated Density” value is given as “low cellular stress (low actin expression)”. Also, the “CD31 expression (physiologic endothelial phenotype), Integrated Density” value in test [1] (listed as 1374) was “evident positive effect in terms of CD31 expression”. Further, the “CD31 expression (physiologic endothelial phenotype), Integrated Density” value in test [1] (listed as SP 1374) was “consistent functional endothelial phenotype (high CD31 expression)”.
